Measurements as given in patent US7612071B2, “Compositions and methods employing aminopterin” (Syntrix Biosystems, Inc., priority 2004, dated 2009).

Legend:
[1] = Mean intrapatient coefficient of variation of oral bioavailability; format: in vivo; conditions: human, plasma, 2 mg/m2; AMT 2 mg/m^2 PO, n=5
Text: The term “intrapatient coefficient of variation of oral bioavailability” as used herein refers to the coefficient of variation of oral bioavailability of two or more antifolate doses given to the same patient. Specifically, it is the standard deviation of oral bioavailability of the two or more antifolate doses in the same patient divided by the intrapatient oral bioavailability, expressed as a percent.
The term “mean intrapatient coefficient of variation of oral bioavailability” as used herein refers to the average intrapatient coefficient of variation of oral bioavailability for two or more patients.
The intrapatient oral bioavailability and standard deviation of the oral bioavailability were determined among the consecutive doses in a given patient, and the intrapatient coefficient of variation of oral bioavailability calculated for each patient by dividing the standard deviation by the intrapatient oral bioavailability.

[2] = Storage of aqueous compositions; format: physicochemical; conditions: parenteral, oral liquid or other aqueous compositions
Text: Because of their ease of administration, tablets and capsules represent the most advantageous oral dosage form in adults, in which case solid pharmaceutical carriers are employed. If desired, tablets may be coated by standard aqueous or nonaqueous techniques. The parenteral dosage form can consist of a sterile solution of the active ingredient, either in its free or salt form, in physiological buffer or sterile water. In addition, parenteral solutions can contain preservatives such as benzalkonium chloride, methyl- or propyl-paraben and chlorobutanol. Suitable pharmaceutical carriers are described in Remington's Pharmaceutical Sciences, a standard reference text in this field. […] Accordingly, such aqueous compositions are best stored desiccated and hydrated within several hours to several days prior to patient administration.

[3] = AMT 2 mg/m^2, adult patients, n=13, prior art; cited from earlier work

SMILES: Nc1nc(N)c2nc(CNc3ccc(C(=O)N[C@@H](CCC(=O)O)C(=O)O)cc3)cnc2n1 [AMT]
- Mean intrapatient coefficient of variation of oral bioavailability [1]: 25%
- stability of aqueous compositions (conversion of aminopterin to folic acid) [2]: accumulate folic acid to undesirable levels over the course of six months of storage
- Interpatient oral bioavailability (%) [3]: 85%
- Maximum (%) oral bioavailability [3]: 163%
- Minimum (%) oral bioavailability [3]: 32%
